One may read the IC50 as the concentration that inhibits the measured activity by half. Read a low IC50 as inhibition by little substance.

Data on one molecule can be found in publication PMC6010047, “Design, synthesis and biological evaluation of novel hydroxy-phenyl-1H-benzimidazoles as radical scavengers and UV-protective agents” (Journal of Enzyme Inhibition and Medicinal Chemistry, 2017).

Where two headings read alike, the source gives them in different places.

Data set [1] in a line: Ferric reducing antioxidant of potency (FRAP) assay. It counts as biochemical. To be noted: Trolox equivalents; mean ± SE of three experiments. How it is done:
The ferric reducing ability of each standard solution was measured according to a modified protocol described by Guihua et al.[26]. The reagent for analysis was freshly prepared by mixing the following solutions in the reported ratio 10/1/1 (v:v:v) (i) 0.1 M acetate buffer pH 3.6, (ii) TPTZ (2,4,6-Tri(2-pyridyl)-s-triazine) 10 mmol/L in 40 mmol/HCl, (iii) ferric chloride 20 mmol/L. To a 1.9 mL of reagent were added 0.1 mL of sample proper diluted or solvent when blank was performed. Readings at fixed wavelength of the absorption maximum (593 nm) were done after 30 min, using a UV-VIS spectrophotometer; it was evaluated the absorbance increase of sample solution against the absorbance of blank reaction as parameter to calculate the antioxidant activity. The antioxidant activity is given as Trolox activity since this standard was used to perform the calibration curves.

Data set [2] deals with NCTC-2544 cells. Put plainly: Phototoxicity / cellular photoprotection, UVA or UVB irradiation, MTT test. Particulars: Homo sapiens, NCTC-2544, light or radiation study, 48 h. In general terms: Tetrazolium dyes change colour on reduction, which living cells bring about.
Experimental: (§1) An immortalized, nontumorigenic cell line of human keratinocytes (NCTC-2544) was grown in a DMEM medium (Sigma-Aldrich Milan, Italy), supplemented with 115 units/mL of penicillin G, 115 μg/mL streptomycin, and 10% fetal calf serum (Invitrogen, Milan, Italy). Individual wells of a 96-well tissue culture microtiter plates (Falcon, Becton–Dickinson) were inoculated with 100 μL of complete medium containing 5 × 10^3 NCTC-2544. The plates were incubated at 37 °C in a humidified (5% CO2) incubator for 18 h prior to the experiments.
Two HPW 125 Philips lamps, mainly emitting at 365 nm, were used for UVA irradiation experiments. The spectral irradiance of the source was 4.0 mWcm^−^2 as measured at the sample level by a Cole-Parmer Instrument Company radiometer (Niles, IL) equipped with a 365-CX sensor. One or two PL-S 9 W/12 Philips lamps (280–370 nm; peak at 315 nm) were used for UVB irradiation experiments. To restrict the incident radiation to the range 305–370 nm, a glass filter (Schott SWG-305) was used. Total energy was detected by the same equipped with a sensor (model CX-312).
After medium removal, 100 μL of the drug solution, dissolved in DMSO and diluted with Hank’s Balanced Salt Solution (HBSS pH =7.2), was added to each well, incubated at 37 °C for 30 min, and then irradiated (20 J/cm^2 for UVA and 0.5 and 1 J/cm^2 for UVB). After irradiation, the solution was replaced with the medium and the plates were further incubated for 48 h. Cell viability was assayed by the MTT [(3–(4,5-dimethylthiazol-2-yl)-2,5 diphenyl tetrazolium bromide)] test as previously described by Mosmann[27].
Molecules were verified for their photocytotoxicity in the same cell line; the cells were treated with 50 μM solutions of compound and after 30 min were irradiated with 20 J/cm^2 UVA or with UVB at two energy amounts: 0.5 J/cm^2 and 1 J/cm^2 UVB. […] After irradiation, the solution was replaced with growth medium and the cells were further incubated for 48 h, and then, cell viability was assessed by MTT assay. […] The phototoxicity of tested molecules was compared with the ratio of cell survival of irradiated keratinocytes without substance (IC = irradiated control).
The nature of data set [3]: Cytotoxicity, MTT test, 72 h. Particulars: human, NCTC-2544 keratinocytes (immortalized, nontumorigenic).
Experimental: as §1
After medium removal, 100 μL of the drug solution, dissolved in DMSO and diluted in DMEM medium, was added to each well, incubated at 37 °C for 72 h. Final DMSO concentration never exceeded 0.5%. Cell viability was assayed by the MTT (3–(4,5-dimethylthiazol-2-yl)-2,5 diphenyl tetrazolium bromide) test as previously described by Mosmann[27].
The tests were conducted using a specific cell line of human keratinocytes (NCTC-2544). To assess cell viability, in the presence of the study compounds, before and after the irradiation, the MTT assay was performed[27]. The cytotoxicity was checked after 72 h from the incubation of the keratinocytes with compounds; moreover, the same experiments were performed in the presence of the parent PBSA.
The nature of data set [4]: 1,1-Diphenyl-2-picryl-hydrazyl radical (DPPH) assay. It is filed as biochemical. Particulars: Trolox equivalents; mean ± SE of three experiments. The procedure: To 1.5 mL DPPH methanolic solution (0.5 mM) was added 0.750 mL of sample solution proper diluted. Samples absorbance measurements were evaluated with a UV-VIS spectrophotometer (Thermo Spectronic Helios γ, Cambridge, UK) at fixed wavelength of 517 nm. Blank sample was prepared adding methanol to DPPH solution and Trolox was used as standard reference to achieve a calibration curve. The radical-scavenging activity is expressed as inhibition ratio of initial concentration of DPPH radical and is calculated according to the formula: Inhibition percentage (Ip) = [(AB-As)/AB]·100; where AB and As are, respectively, the absorbance values of blank reaction and of the tested sample[25].
Background: The DPPH test is a chemical assay of radical scavenging.

The nature of data set [5]: UV spectra: λmax and molar extinction coefficient. It counts as physicochemical. How it is done:
Sun protection factor (SPF) is related to the UV absorption of the substances, so before including the molecules in cosmetic formulations we evaluated the wavelength of maximum absorption (λmax) and the molar extinction coefficient (ɛ) of each molecule in aqueous solution at pH 7. The UV spectra were recorded between 270 and 420 nm (20 nm higher and lower then UVA and UVB range) to verify the spectrum profile of the molecules within UVA and UVB region. UV spectrum of PBSA is an UVB filter and presents a λmax of 302 nm; after this peak, the absorbance fades going to higher wavelength until almost zero around 325 nm, and then, it provides no absorption in the UVA region. Molecules spectra overlapped for category according to the substituent in position 5 of the benzimidazole ring are shown in Figures 1, 2 and 3; PBSA spectrum is presented in all figures for comparison.
From the spectra appears that the lambda maxima (Table 2) of the new molecules shifted toward higher wavelength and in general the range of absorption curve was wider than PBSA. Within a group of molecules, the batochromic shift was more marked for the molecules that have a hydroxyl moiety in position 2 of the phenyl ring (4, 5, 6, 9, 10, 11, 13 and […]); the effect of ortho substituted is known to produce this shift toward higher wavelength. Increasing the number of auxochrome groups on phenyl ring an increment in the absorption range occurred, compounds with three hydroxyl on the phenyl ring (6, 11, 15) had the broadest spectrum and their lambda maxima shifted at the highest wavelength compared to the other compounds. The absorption spectrum of molecules with the same number and position of hydroxyl seemed only slightly influenced by the substituent in position 5 of the benzimidazole ring. After having established the lambda maxima for every compound, solutions at different concentrations were prepared to calculate the molar extinction coefficient by means of linear regression and applying Lambert–Beer equation (Table 2).

Turning to `Oc1ccc(-c2nc3ccccc3[nH]2)cc1` [Compound 7, 2-(4-Hydroxy-phenyl)-1H-benzimidazole], the FRAP in data set [1] worked out at 21.94 ± 0.12 μmolTrolox/mmol. Besides, the viability at 20 µM in data set [2] (read-out: % Cell survival UVA 20 J/cm^2) was determined as 72.8 ± 2.9%; in data set [2] (read-out: % Cell survival UVB 0.5 J/cm^2), 74.2 ± 1.3%; in data set [2] (read-out: % Cell survival UVB 1 J/cm^2), 44 ± 4.1%. Also, the IC50 at 72 h in data set [3] amounted to 26.1 ± 2.4 µM. In addition, in data set [4], the DPPH was found to be 1.67 ± 0.08 μmolTrolox/mmol. In data set [5] (aqueous solution at pH 7), this molecule came in with a λ max of 306 nm. Further, in data set [5] (aqueous solution at pH 7, at λ max, linear regression Lambert–Beer), the “ɛ (molar extinction coefficient)” value is on record as 24 000.
